Common to all, as to type: cell-based
In assay [1] the test system is HeLa cell, a cervical cancer cell line. Briefly: Cell-killing effect on HeLa cells, crystal violet staining of attached living cells. As to conditions: for cell-killing activity: procedure of Example 2, crystal violet; for cell-killing activity compared with CKP peptide: procedure of Example 2, FIG. 6. How it is done:
In order to examine the cell-killing effect of CKP peptide synthesized in Example 1, HeLa cell, a cervical cancer cell line was adopted and cultivated. The culture medium was replaced with experimental media containing CKP peptide solution in 0, 1, 5, 10, 15, 20, 30, 40 μM of concentration serially and cultivated for more 24 hours. In order to observe living cells attached on the surface, the resulting cells were stained for 10 minutes by using 100 μl of 0.5% crystal violet and then, washed out by using distilled water and running water to be de-stained, while discarding cells floating on the culture medium. Then, cells were observed by photography after placing culture vessel under a fluorescent lamp box as depicted in FIG. 3. At this moment, living cells attached on the surface appeared blue color since they were stained by crystal violet.

Assay [2] shares this test system. The description is as above. Conditions: pan-caspase inhibitor z-VAD-fmk in culture media, FIG. 11.
A further assay has as its system HeLa cell lines. Briefly: Time-lapse video capture microscopy of HeLa cell death. As to conditions: for morphology of dead HeLa cells: CKP at 23 minutes and 20 seconds, TRAIL at 5 hours and 30 minutes, FIG. 8. How it is done:
In order to analyze the action mode of CKP peptide of the present invention, several substances that are known to kill cells were adopted to compare the cell-killing effects. Above all, CKP peptide (10 μM), TRAIL (100 ng/ml) and Cisplatin (100 μg/ml) were treated to HeLa cell lines and observed under time-lapse video capture microscopy (Leica, Model: DMIRBE, Germany) in some time-interval (for CKP peptide, 20 seconds; TRAIL, 40 seconds; Cisplatin, 3 minutes) for 1 hour and 40 minutes, 3 hours and 30 minutes, 8 hours and 48 hours respectively. Then, the results were photographed to 40× by using FW4000 software. FIG. 7 depicts HeLa cells serially at each time interval. As a result, it is observed that the cell death caused by TRAIL started at about 1 hour and 30 minutes after treatment and reached the maximum level at about 8 hours. To the contrary, HeLa cell started to die at about 10 minutes after treating CKP peptide and most of HeLa cells have died even at 23 minutes and 20 seconds.

Assay [3] relates to HeLa cell, a cervical cancer cell line. As to the kind of experiment: Relative survival ratio of HeLa cells, counted from time-lapse microscopy. Conditions: 1 hour. How it is done: In order to measure the strength of CKP peptide, several substances that are known to kill cells were adopted to compare the cell-killing effects. HeLa cell, a cervical cancer cell line was cultivated and treated with CKP peptide, TRAIL and Cisplatin to 30 μM, 100 ng/ml and 100 μg/ml respectively for 1 hour. After that, the resulting cells were observed under time-lapse video capture microscopy (Leica, Model: DMI RBE, Germany) in 20 seconds of time-interval for 1 hour by the procedure described in Example 5, photographed to 40×, counted for the numbers of living cells and dead cells and then, estimated the relative survival ratio in a graph. […] As a consequence, it is clarified that CKP peptide of the present invention had the strongest cell-killing effect about 9-fold more than TRAIL or Cisplatin.

No end group written: not given here. Bounds are passed on as bounds.

In the case of “PTD domain without CKP domain: only PTD domain without CKP domain, synthesized as in Example 1 (RRRRRRRRG; protein transduction domain) [reference compound]”, the cell-killing activity entry in assay [1] is given as “not detected at all”.

In the case of “CKP 8: SEQ ID NO: 11 (RRRRRRRRGRQKLLNLISKAF), 9th leucine substituted to alanine (Fusion protein)”, the “cell-killing activity compared with CKP peptide” value in assay [1] is recorded as “decreased the cell-killing activity remarkably”.

In the case of “CKP 7: SEQ ID NO: 10 (RRRRRRRRGRQKLLNAISKLF), 5th leucine substituted to alanine (Fusion protein)”, the “cell-killing activity compared with CKP peptide” value in assay [1] was “decreased the cell-killing activity remarkably”.

On to “CKP 4: SEQ ID NO: 7 (RRRRRRRRGRQKLLNLIAALF), substituted in two residues (fusion protein)”, for which the “cell-killing activity compared with CKP peptide” value in assay [1] is recorded as “outstanding rather than CKP peptide”.

“BidBH3CKP: fusion protein that combines CKP peptide with BidBH3 peptide, SEQ ID NO: 12 (RRRRRRRRGNIARHLAQVGDSMDRRQKLLNLISKLF; Fusion protein)”: the “cell-killing activity relative to BidBH3 peptide” value in assay [1] (procedure of Example 2) turned out to be 2 fold. In addition, in assay [2], the “difference of cell-killing activity with or without z-VAD-fmk” value is on record as “not significant difference”.

Turning to RRRRRRRRGRQKLLNLISKLF [CKP peptide], the “concentration from which cell-killing activity is seen” value in assay [1] (0-40 μM, 24 hours, crystal violet, FIG. 3) is at least 10 µM. For the same molecule, the cell-killing activity entry in assay [1] is reported as “became strong remarkably”. The “morphology of dead HeLa cells” value in the assay with HeLa cell lines was “several cell membranes like balloon”. For the same molecule, the “time at which HeLa cells started to die after treatment” value in the assay with HeLa cell lines (CKP peptide 10 μM) is “about 10 minutes”. Besides, the “cell-killing effect relative to TRAIL or Cisplatin” value in assay [3] is on record as “about 9 fold”.

For “Bid(mt)BH3CKP: fusion protein combining CKP peptide with mutant BidBH3 deleting the active site of BH3 domain, SEQ ID NO: 13 (RRRRRRRRGNIARHLAQVADSMDRRQKLLNLISKLF; Fusion protein)”, the cell-killing activity result in assay [1] is recorded as “had the cell-killing activity”.

Consider “CKP 2: SEQ ID NO: 5 (RRRRRRRRGRQKALNLISKLF), substituted in one residue (fusion protein)”, for which the “cell-killing activity compared with CKP peptide” value in assay [1] was “decreased the cell-killing activity slightly”.

“CKP 3: SEQ ID NO: 6 (RRRRRRRRGRQKLAALISKLF), substituted in two residues (fusion protein)”: the “cell-killing activity compared with CKP peptide” value in assay [1] is given as “decreased the cell-killing activity slightly”.

For “CKP 6: SEQ ID NO: 9 (RRRRRRRRGRQKAANLISKLF), 2nd and 3rd leucines substituted to alanine (Fusion protein)”, the “cell-killing activity compared with CKP peptide” value in assay [1] was “decreased the cell-killing activity remarkably”.

With “CKP 5: SEQ ID NO: 8 (RRRRRRRRGRQKALNLIAALF), substituted in three residues (fusion protein)”, the “cell-killing activity compared with CKP peptide” value in assay [1] is “decreased the cell-killing activity slightly”.

B1: TRAIL (protein, UniProt P50591 1-281, looked up)
Tumor necrosis factor ligand …: MAMMEVQGGPSLGQTCVLIVIFTVLLQSLCVAVTYVYFTNELKQMQDKYSKSGIACFLKEDDSYWDPNDEESMNSPCWQVKWQLRQLVRKMILRTSEETISTVQEKQQNISPLVRERGPQRVAAHITGTRGRSNTLSSPNSKNEKALGRKINSWESSRSGHSFLSNLHLRNGELVIHEKGFYYIYSQTYFRFQEEIKENTKNDKQMVQYIYKYTSYPDPILLMKSARNSCWSKDAEYGLYSIYQGGIFELKENDRIFVSVTNEHLIDMDHEASFFGAFLVG
notes: substance known to kill cells, used as comparator
Turning to B1, the “morphology of dead HeLa cells” value in the assay with HeLa cell lines is “not to have cell membrane like balloon”. Further, the “time at which cell death reached the maximum level” value in the assay with HeLa cell lines (TRAIL 100 ng/ml) is given as “about 8 hours”.

Source of the values: patent US8329862B1, “Cell-killing peptide derived from the C-terminus of NOXA protein” (Chosun University, priority 2004, dated 2012).
